Assay results as given in patent publication US20240044922A1, “DEVICE AND METHODS FOR MEASURING PLATELET-FIBRIN CLOT CONTRACTION KINETICS” (University of Kentucky Research Foundation, priority 2022, published 2024).

System: washed mouse platelets
Test: Clot contraction assay, time-lapse imaging of washed mouse platelets with thrombin, fibrinogen and CaCl2
Type: cell-based
[1] = fibrinogen 62 μg/mL, CaCl2 0.5 mM, thrombin 20 mU/mL
[2] = fibrinogen 125 μg/mL, CaCl2 0.5 mM, thrombin 20 mU/mL
[3] = fibrinogen 250 μg/mL, CaCl2 0.5 mM, thrombin 20 mU/mL
[4] = fibrinogen 500 μg/mL, CaCl2 0.5 mM, thrombin 20 mU/mL
[5] = fibrinogen 1000 μg/mL, CaCl2 0.5 mM, thrombin 20 mU/mL
[6] = blebbistatin 50 μM, standard conditions
[7] = blebbistatin 100 μM, standard conditions
[8] = blebbistatin 200 μM, standard conditions

In the case of Fibrinogen, the AUC [1] is reported as 6.66 AU, the “Average Velocity” value [1] is reported as 0.53 %/min and the “Clot Contraction Extent” value [1] is reported as 53.50%. For the same molecule, the Lag time [1] was 46.67 min, the “PHASE 1 % Contraction” value [1] was 2.11% and the “PHASE 1 Rate 1” value [1] was 1.50 ×10^−3 %/min. The “PHASE 1 t1” value [1] was 13.00 min, the “PHASE 2 % Contraction” value [1] was 24.32% and the “PHASE 2 Rate 2” value [1] was 1.19 %/min. The “PHASE 2 t2” value [1] was 28.00 min, the “PHASE 3 % Contraction” value [1] was 43.44% and the “PHASE 3 Rate 3” value [1] was 2.90 ×10^−2 %/min. The AUC [2] was 4.13 AU, the “Average Velocity” value [2] was 1.00 %/min and the “Clot Contraction Extent” value [2] was 98.07%. The Lag time [2] was 26.40 min, the “PHASE 1 % Contraction” value [2] was 2.72% and the “PHASE 1 Rate 1” value [2] was 2.25 ×10^−3 %/min. For the same molecule, the “PHASE 1 t1” value [2] was 10.75 min, the “PHASE 2 % Contraction” value [2] was 37.99% and the “PHASE 2 Rate 2” value [2] was 1.66 %/min. The “PHASE 2 t2” value [2] was 30.75 min, the “PHASE 3 % Contraction” value [2] was 57.36% and the “PHASE 3 Rate 3” value [2] was 5.90 ×10^−2 %/min. For the same molecule, the AUC [3] was 4.23 AU, the “Average Velocity” value [3] was 0.98 %/min and the “Clot Contraction Extent” value [3] was 96.87%. For the same molecule, the Lag time [3] was 21.67 min, the “PHASE 1 % Contraction” value [3] was 3.26% and the “PHASE 1 Rate 1” value [3] was 2.18 ×10^−3 %/min. For the same molecule, the “PHASE 1 t1” value [3] was 10.40 min, the “PHASE 2 % Contraction” value [3] was 26.29% and the “PHASE 2 Rate 2” value [3] was 1.50 %/min. The “PHASE 2 t2” value [3] was 29.40 min, the “PHASE 3 % Contraction” value [3] was 67.28% and the “PHASE 3 Rate 3” value [3] was 4.96 ×10^−2 %/min. The AUC [4] was 4.89 AU, the “Average Velocity” value [4] was 0.89 %/min and the “Clot Contraction Extent” value [4] was 88.42%. The Lag time [4] was 17.80 min, the “PHASE 1 % Contraction” value [4] was 3.48% and the “PHASE 1 Rate 1” value [4] was 2.78 ×10^−3 %/min. The “PHASE 1 t1” value [4] was 9.40 min, the “PHASE 2 % Contraction” value [4] was 19.02% and the “PHASE 2 Rate 2” value [4] was 1.10 %/min. For the same molecule, the “PHASE 2 t2” value [4] was 26.00 min, the “PHASE 3 % Contraction” value [4] was 65.92% and the “PHASE 3 Rate 3” value [4] was 3.32 ×10^−2 %/min. For the same molecule, the Efficiency of contraction (fibrinogen 1,000 μg/mL) was “too high for efficient contraction”, the AUC [5] was 6.18 AU and the “Average Velocity” value [5] was 0.69 %/min. For the same molecule, the “Clot Contraction Extent” value [5] was 68.91%, the Lag time [5] was 39.80 min and the “PHASE 1 % Contraction” value [5] was 4.20%. For the same molecule, the “PHASE 1 Rate 1” value [5] was 3.03 ×10^−3 %/min, the “PHASE 1 t1” value [5] was 11.80 min and the “PHASE 2 % Contraction” value [5] was 10.11%. The “PHASE 2 Rate 2” value [5] was 0.70 %/min, the “PHASE 2 t2” value [5] was 25.40 min and the “PHASE 3 % Contraction” value [5] was 54.53%. For the same molecule, the “PHASE 3 Rate 3” value [5] was 1.92 ×10^−2 %/min and the “Fibrinogen concentrations with highest extent and average velocity of contraction” value (fibrinogen 62.5 to 1,000 μg/mL) was “highest at 125 and 250”.
In the case of `Cc1ccc2c(c1)C(=O)C1(O)CCN(c3ccccc3)C1=N2` (stereo not drawn) [Blebbistatin, blebbistatin, reference compound], the AUC [6] is reported as 4.18 AU, the “Average Velocity” value [6] is reported as 1.00 %/min and the “Clot Contraction Extent” value [6] is reported as 96.93%. The Lag time [6] was 23.33 min, the “PHASE 1 % Contraction” value [6] was 4.23% and the “PHASE 1 Rate 1” value [6] was 3.67 ×10^−3 %/min. The “PHASE 1 t1” value [6] was 14.33 min, the “PHASE 2 % Contraction” value [6] was 26.51% and the “PHASE 2 Rate 2” value [6] was 1.40 %/min. The “PHASE 2 t2” value [6] was 32.00 min, the “PHASE 3 % Contraction” value [6] was 66.19% and the “PHASE 3 Rate 3” value [6] was 5.00 ×10^−2 %/min. For the same molecule, the AUC [7] was 6.08 AU, the “Average Velocity” value [7] was 0.88 %/min and the “Clot Contraction Extent” value [7] was 85.15%. The Lag time [7] was 40.00 min, the “PHASE 1 % Contraction” value [7] was 7.21% and the “PHASE 1 Rate 1” value [7] was 4.00 ×10^−3 %/min. For the same molecule, the “PHASE 1 t1” value [7] was 24.67 min, the “PHASE 2 % Contraction” value [7] was 28.71% and the “PHASE 2 Rate 2” value [7] was 1.00 %/min. For the same molecule, the “PHASE 2 t2” value [7] was 51.00 min, the “PHASE 3 % Contraction” value [7] was 49.27% and the “PHASE 3 Rate 3” value [7] was 3.47 ×10^−2 %/min. For the same molecule, the AUC [8] was 6.79 AU, the “Average Velocity” value [8] was 0.69 %/min and the “Clot Contraction Extent” value [8] was 66.52%. The Lag time [8] was 43.67 min, the “PHASE 1 % Contraction” value [8] was 12.21% and the “PHASE 1 Rate 1” value [8] was 5.00 ×10^−3 %/min. For the same molecule, the “PHASE 1 t1” value [8] was 31.00 min, the “PHASE 2 % Contraction” value [8] was 14.17% and the “PHASE 2 Rate 2” value [8] was 0.69 %/min. The “PHASE 2 t2” value [8] was 49.33 min, the “PHASE 3 % Contraction” value [8] was 40.15% and the “PHASE 3 Rate 3” value [8] was 1.70 ×10^−2 %/min. The “Effect on Phase 2 contraction rate” value (blebbistatin 50 to 200 μM) was “drastic decrease”, the “Effect on average velocity” value (blebbistatin 50 to 200 μM) was “decrease” and the “Effect on extent of clot contraction” value (blebbistatin 50 to 200 μM) was “decrease”. For the same molecule, the “Effect on lag time” value (blebbistatin 50 to 200 μM) was “dose-dependent increase”.
